What was measured:
HIV RNA of ACH-2 cells = assay: HIV qLDR on PMA-activated ACH-2 cells in A3.01 cells (latent vs. active); type: cell-based; conditions: 10 ACH-2 cells in 10^6 A3.01 cells; PMA 1 μM for 0, 3, 8, 24 hr; FIG. 9
Experimental: For cell line testing (FIG. 9), ACH-2 and A3.01 cells were grown in T-75 flasks and plated at 1 mL per well in a 24-well culture plate in RPMI medium. After the wells reached 60% confluency, cells were activated for 0, 3, 8, and 24 hr with PMA (phorbal 12-myristate 13-acetate) at 1 μM final concentration per well. The experiment was performed such that each activation time endpoint represented the same total growth time. The activated ACH-2 cells were harvested from each well and counted. After preservation and shipping in 90% FBS/10% DMSO at −80° C., the cell suspensions were recounted, diluted and added at 10 cells into 10^6 A3.01 cells activated for the matching time period. HIV qLDR, using probes SEQ ID NO: 9/SEQ ID NO: 10 for 2 kb tat-rev transcripts, SEQ ID NO: 1/SEQ ID NO: 2 for 9 kb transcripts, and SEQ ID NO: 1/SEQ ID NO: 2 and SEQ ID NO: 5/SEQ ID NO: 6 for 4 kb transcripts, was performed on the cells and fluorometric readings in a 96-well plate format were normalized to background. […] Thus, the ratio of cell-based tat-rev to 4 kb/9 kb HIV RNA levels may be a useful measure of latent to active cell number.

[1] = test system: synthetic HIV RNA targets; assay: qLDR probe set testing against synthetic HIV RNA targets; conditions: initial testing with synthetic HIV RNA targets
Experimental: The qLDR reaction contained optimized probe concentrations at 10-100 pM and a total reaction volume of 50 μL. The qLDR reaction for each probe set was optimized against the commensurate synthetic HIV RNA targets using fluorescence microscopy and fluorescence emission in a 96-well format in a desktop fluorometer, with readings normalized to background.

HIV pol/protease region = assay: HIV qLDR compared with HIV RT-qPCR on human peripheral blood samples; type: cell-based; conditions: CD4+ T cells for qLDR, blood plasma for RT-qPCR; FIG. 11
Experimental: For human sample testing comparison with HIV RT-qPCR (FIG. 11), blood plasma was used for RT-qPCR and CD4+ T cells were used for qLDR. RT-qPCR was performed using primers and probe to the HIV gag-pol region, as described in Livak et al., 1995, for best comparison with HIV qLDR with probes SEQ ID NO: 1/SEQ ID NO: 2 to the HIV pol/protease region. HIV RNA was isolated from blood plasma samples prior to RT-qPCR. An RT-qPCR standard was prepared by in vitro transcription of a synthetic HIV T7 plasmid, and RNA copy number was determined using a standard curve generated with the RT-qPCR standard.

cellular HIV RNA = assay: HIV qLDR on CD4-enriched PBMC lysates from HIV- and HIV+ participants; type: cell-based, human; conditions: FIG. 10a-b; for detection of cellular HIV RNA in HIV+ HAART (latent) samples / detection of cellular HIV RNA in HIV- samples: CD4-enriched PBMC lysates, 20 mL blood; for detection between latent and HIV+ non-HAART (active) samples: including viremic participants and elite controllers
Experimental: For human sample testing (FIG. 10a-b) by HIV qLDR, CD4-enriched PBMC from HIV− and HIV+ participants were tested by the HIV qLDR probes SEQ ID NO: 9/SEQ ID NO: 10 for 2 kb tat-rev transcripts and SEQ ID NO: 5/SEQ ID NO: 6 for 9 kb and 4 kb transcripts. Lysates were tested from five individuals/class. Tests were performed in triplicate with 20 mL blood.

| Substance | change of fluorescence level through activation time course (HIV RNA of ACH-2 cells) | detection efficiency [1] | correlation of HIV qLDR results with HIV RT-PCR viremia results (HIV pol/protease region) | detection of cellular HIV RNA in HIV+ HAART (latent) samples (cellular HIV RNA) | detection of cellular HIV RNA in HIV- samples (cellular HIV RNA) | detection between latent and HIV+ non-HAART (active) samples (cellular HIV RNA) |
| --- | --- | --- | --- | --- | --- | --- |
| SEQ ID NO: 1/SEQ ID NO: 2: fluorogenic probe pair SEQ ID NO: 1 (Ald-1) and 2 (Ind), HIV-1 pol/protease, detects full length 9 kb RNA (chain 1 CCTGTATCTAATAGAGC; chain 2 TCTAATACTGTATCATCT; fluorogenic labels; Latent HIV-1 qLDR Oligonucleotide Probe; (1)..(1) Fluorogenic probe moiety attachment position on probe sequence; (18)..(18) Fluorogenic probe moiety attachment position on probe sequence) | marked increase | comparable detection efficiency | closely correlated |  |  |  |
| SEQ ID NO: 5/SEQ ID NO: 6: fluorogenic probe pair SEQ ID NO: 5 (Ald-2) and 6 (Ind), HIV-1 gp160/41, detects 4 kb spliced and 9 kb RNA (chain 1 ATAGTGCTTCCTGCT; chain 2 GTCATTGAGGCTGCG; fluorogenic labels; Latent HIV-1 qLDR Oligonucleotide Probe; (1)..(1) Fluorogenic probe moiety attachment position on probe sequence; (15)..(15) Fluorogenic probe moiety attachment position on probe sequence) | marked increase | comparable detection efficiency |  | successfully detected | not in HIV—samples | differential detection |
| SEQ ID NO: 9/SEQ ID NO: 10: fluorogenic PNA probe pair SEQ ID NO: 9 (Ald-1) and 10 (Ind), tat-rev, detects spliced 2 kb HIV-1 RNA (chain 1 CTTTG; chain 2 TGGGT; PNA; fluorogenic labels; Latent HIV-1 qLDR Oligonucleotide Probe; (1)..(1) Fluorogenic probe moiety attachment position on probe sequence; (1)..(5) Peptide nucleic acid 5′ Ald-CTTTG-DMLys-DMLys- CONH2; (1)..(5) Peptide nucleic acid 3′ Ind-TGGGT-DMLys-DMLys- CONH2; (5)..(5) Fluorogenic probe moiety attachment position on probe sequence) | relatively little increase | comparable detection efficiency |  | successfully detected | not in HIV—samples | differential detection |
